{
  "source": "patent US9957247B2",
  "about": "“SecA inhibitors and methods of making and using thereof” (Georgia State University Research Foundation, Inc., priority 2012, dated 2018)",
  "key": {"S. aureus Mu50 [1]": {"system": "S. aureus Mu50", "assay": "Bactericidal effect, S. aureus Mu50", "conditions": "9 μg/ml, 1 hour at 37° C., FIG. 5"}, "BsSecA [2]": {"biological_target": "T1, BsSecA (Bacillus subtilis, UniProt P28366)", "T1 sequence (P28366 whole entry)": "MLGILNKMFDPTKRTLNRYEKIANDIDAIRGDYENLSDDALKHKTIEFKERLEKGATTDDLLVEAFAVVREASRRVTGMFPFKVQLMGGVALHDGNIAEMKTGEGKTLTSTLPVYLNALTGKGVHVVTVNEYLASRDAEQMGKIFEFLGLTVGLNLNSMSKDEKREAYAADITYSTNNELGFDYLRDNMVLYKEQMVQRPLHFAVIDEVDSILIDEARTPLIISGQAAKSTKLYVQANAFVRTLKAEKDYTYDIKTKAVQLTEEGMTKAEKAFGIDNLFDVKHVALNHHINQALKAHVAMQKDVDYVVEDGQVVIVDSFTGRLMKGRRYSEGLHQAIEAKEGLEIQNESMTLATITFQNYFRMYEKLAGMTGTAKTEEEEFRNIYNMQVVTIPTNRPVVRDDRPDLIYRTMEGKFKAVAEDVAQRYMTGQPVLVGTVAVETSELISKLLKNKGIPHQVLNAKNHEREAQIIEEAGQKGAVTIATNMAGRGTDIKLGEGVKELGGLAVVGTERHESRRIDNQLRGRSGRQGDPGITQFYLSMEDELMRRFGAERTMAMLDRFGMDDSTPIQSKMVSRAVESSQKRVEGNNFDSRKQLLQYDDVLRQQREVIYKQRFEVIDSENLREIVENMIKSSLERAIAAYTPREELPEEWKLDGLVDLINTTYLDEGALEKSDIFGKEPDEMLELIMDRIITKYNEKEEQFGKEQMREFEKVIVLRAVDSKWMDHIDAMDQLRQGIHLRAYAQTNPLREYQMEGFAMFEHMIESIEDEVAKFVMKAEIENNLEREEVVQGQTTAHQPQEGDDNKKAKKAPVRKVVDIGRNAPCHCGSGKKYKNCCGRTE", "assay": "biochemical", "type": "biochemical, B. subtilis"}, "MtbSecA": {"biological_target": "MtbSecA (Mycobacterium tuberculosis, UniProt P9WGP5)", "assay": "cell-based"}, "EcSecA [3]": {"biological_target": "T2, EcSecA (Escherichia coli, UniProt P10408)", "assay": "cell-based"}, "BsSecA [4]": {"biological_target": "T1, BsSecA", "assay": "cell-based", "parameters": "species or system B. subtilis", "conditions": "IC50, Ion Channel activity, BsSecA, Table 1"}, "[5]": {"system": "S. aureus deletion strains (NorA−, MepA−) and strains (NorA++, MepA++) with over-expressed efflux pumps", "assay": "Antimicrobial effect with deletion or over expression of efflux pumps in S. aureus"}, "SaSecA1": {"biological_target": "T3, SaSecA1 (Staphylococcus aureus, UniProt O06446)", "T3 sequence (O06446 1-843)": "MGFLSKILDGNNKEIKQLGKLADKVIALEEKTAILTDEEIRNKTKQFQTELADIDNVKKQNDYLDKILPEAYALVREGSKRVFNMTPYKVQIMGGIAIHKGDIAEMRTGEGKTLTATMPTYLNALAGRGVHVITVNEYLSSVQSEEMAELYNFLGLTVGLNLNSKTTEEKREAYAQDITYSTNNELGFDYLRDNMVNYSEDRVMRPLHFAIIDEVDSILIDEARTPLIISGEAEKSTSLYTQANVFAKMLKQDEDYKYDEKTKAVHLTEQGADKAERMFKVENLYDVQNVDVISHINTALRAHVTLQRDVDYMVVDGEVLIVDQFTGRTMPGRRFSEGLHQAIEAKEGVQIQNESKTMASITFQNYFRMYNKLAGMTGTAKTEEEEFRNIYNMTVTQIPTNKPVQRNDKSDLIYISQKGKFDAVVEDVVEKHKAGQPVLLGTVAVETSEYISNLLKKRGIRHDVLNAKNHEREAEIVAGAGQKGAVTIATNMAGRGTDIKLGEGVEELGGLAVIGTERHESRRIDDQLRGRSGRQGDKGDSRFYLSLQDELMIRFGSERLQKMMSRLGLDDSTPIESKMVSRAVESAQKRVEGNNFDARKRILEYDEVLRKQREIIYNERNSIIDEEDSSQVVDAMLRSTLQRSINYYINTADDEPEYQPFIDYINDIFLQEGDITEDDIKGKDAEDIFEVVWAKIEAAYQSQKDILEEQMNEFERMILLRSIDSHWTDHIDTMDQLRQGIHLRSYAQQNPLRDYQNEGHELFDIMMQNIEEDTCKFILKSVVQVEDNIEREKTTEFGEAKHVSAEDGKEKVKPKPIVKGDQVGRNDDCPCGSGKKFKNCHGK", "conditions": "read-out: IC50, ATPase activity, SaSecA1; Table 7"}, "S. aureus 6538": {"system": "S. aureus 6538", "assay": "Bactericidal effect, S. aureus 6538", "conditions": "9 μg/ml, 1 hour at 37° C., FIG. 5"}, "EcSecA N68": {"biological_target": "EcSecA N68 (Escherichia coli, UniProt P10408)", "sequence (P10408 1-610)": "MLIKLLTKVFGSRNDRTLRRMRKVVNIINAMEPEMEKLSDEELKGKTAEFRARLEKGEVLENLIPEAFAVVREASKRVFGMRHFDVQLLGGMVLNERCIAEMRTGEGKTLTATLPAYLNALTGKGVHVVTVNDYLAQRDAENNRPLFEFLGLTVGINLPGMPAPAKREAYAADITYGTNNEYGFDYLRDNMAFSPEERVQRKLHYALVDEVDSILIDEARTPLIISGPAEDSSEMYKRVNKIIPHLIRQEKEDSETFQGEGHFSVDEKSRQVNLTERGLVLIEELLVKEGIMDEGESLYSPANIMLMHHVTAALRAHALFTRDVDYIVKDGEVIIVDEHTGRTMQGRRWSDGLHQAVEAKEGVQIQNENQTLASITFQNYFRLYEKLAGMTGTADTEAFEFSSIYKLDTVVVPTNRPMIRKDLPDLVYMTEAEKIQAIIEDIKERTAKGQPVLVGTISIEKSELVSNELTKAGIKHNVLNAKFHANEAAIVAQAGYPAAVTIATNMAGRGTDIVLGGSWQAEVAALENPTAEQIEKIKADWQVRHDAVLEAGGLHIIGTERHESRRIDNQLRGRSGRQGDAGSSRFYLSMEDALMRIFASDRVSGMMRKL", "assay": "biochemical", "type": "biochemical, E. coli"}, "[6]": {"system": "secretion of α-hemolysin, enterotoxin B and TSST-1 by S. aureus Mu50", "type": "cell-based"}, "S. aureus Mu3": {"system": "S. aureus Mu3", "assay": "Bacteriostatic effect, S. aureus Mu3", "conditions": "Staphylococcus aureus, MU3, read-out: Bacteriostatic effect, MIC, S. aureus Mu3"}, "EcSecA [7]": {"biological_target": "T2, EcSecA", "assay": "biochemical", "parameters": "species or system E. coli", "conditions": "IC50, Intrinsic ATPase, Table 1, full-length EcSecA"}, "S. aureus Mu50 [8]": {"system": "S. aureus Mu50", "assay": "Bacteriostatic effect, S. aureus Mu50", "conditions": "for MIC: Staphylococcus aureus"}, "MsSecA": {"biological_target": "MsSecA (Mycolicibacterium smegmatis, UniProt P71533)", "sequence (P71533 whole entry)": "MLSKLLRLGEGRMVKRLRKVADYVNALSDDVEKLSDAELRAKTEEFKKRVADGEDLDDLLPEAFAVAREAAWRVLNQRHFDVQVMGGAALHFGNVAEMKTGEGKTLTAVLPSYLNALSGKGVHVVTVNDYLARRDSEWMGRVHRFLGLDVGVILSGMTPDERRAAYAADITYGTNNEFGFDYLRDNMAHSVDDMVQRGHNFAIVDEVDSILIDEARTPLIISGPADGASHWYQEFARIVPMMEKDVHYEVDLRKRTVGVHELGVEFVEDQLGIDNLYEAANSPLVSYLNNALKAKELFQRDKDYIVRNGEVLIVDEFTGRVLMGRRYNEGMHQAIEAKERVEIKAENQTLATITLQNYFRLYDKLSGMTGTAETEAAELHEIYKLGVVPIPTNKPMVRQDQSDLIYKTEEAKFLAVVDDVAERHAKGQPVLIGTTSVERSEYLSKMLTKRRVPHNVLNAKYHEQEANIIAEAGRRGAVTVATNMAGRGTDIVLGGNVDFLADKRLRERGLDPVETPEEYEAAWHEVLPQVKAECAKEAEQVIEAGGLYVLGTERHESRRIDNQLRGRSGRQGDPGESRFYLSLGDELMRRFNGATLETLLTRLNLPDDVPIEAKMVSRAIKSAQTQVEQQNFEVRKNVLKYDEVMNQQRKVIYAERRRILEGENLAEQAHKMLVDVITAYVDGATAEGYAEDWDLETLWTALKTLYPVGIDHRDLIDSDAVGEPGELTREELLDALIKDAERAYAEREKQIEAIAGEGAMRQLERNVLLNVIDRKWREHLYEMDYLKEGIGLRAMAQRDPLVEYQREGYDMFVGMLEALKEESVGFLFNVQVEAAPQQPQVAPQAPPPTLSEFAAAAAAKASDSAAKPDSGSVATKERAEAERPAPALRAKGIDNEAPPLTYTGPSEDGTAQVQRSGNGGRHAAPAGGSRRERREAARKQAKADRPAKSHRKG", "assay": "SecA-liposomes ion-channel activity in oocytes, MsSecA", "type": "cell-based", "conditions": "Table 1"}, "EcSecA [9]": {"biological_target": "T2, EcSecA", "assay": "biochemical", "conditions": "IC50, Protein Translocation, Table 1"}, "S. pyogenes, MGAS5005": {"system": "S. pyogenes, MGAS5005", "assay": "MIC95, S. pyogenes MGAS5005", "type": "cell-based", "conditions": "Streptococcus pyogenes, MGAS5005; read-out: MIC95, S. pyogenes MGAS5005"}, "S. aureus N315": {"system": "S. aureus N315", "assay": "Bacteriostatic effect, S. aureus N315", "conditions": "Staphylococcus aureus, N315, read-out: Bacteriostatic effect, MIC, S. aureus N315"}, "SpSecA": {"biological_target": "SpSecA (Streptococcus pyogenes, UniProt Q99Y96)", "sequence (Q99Y96 whole entry)": "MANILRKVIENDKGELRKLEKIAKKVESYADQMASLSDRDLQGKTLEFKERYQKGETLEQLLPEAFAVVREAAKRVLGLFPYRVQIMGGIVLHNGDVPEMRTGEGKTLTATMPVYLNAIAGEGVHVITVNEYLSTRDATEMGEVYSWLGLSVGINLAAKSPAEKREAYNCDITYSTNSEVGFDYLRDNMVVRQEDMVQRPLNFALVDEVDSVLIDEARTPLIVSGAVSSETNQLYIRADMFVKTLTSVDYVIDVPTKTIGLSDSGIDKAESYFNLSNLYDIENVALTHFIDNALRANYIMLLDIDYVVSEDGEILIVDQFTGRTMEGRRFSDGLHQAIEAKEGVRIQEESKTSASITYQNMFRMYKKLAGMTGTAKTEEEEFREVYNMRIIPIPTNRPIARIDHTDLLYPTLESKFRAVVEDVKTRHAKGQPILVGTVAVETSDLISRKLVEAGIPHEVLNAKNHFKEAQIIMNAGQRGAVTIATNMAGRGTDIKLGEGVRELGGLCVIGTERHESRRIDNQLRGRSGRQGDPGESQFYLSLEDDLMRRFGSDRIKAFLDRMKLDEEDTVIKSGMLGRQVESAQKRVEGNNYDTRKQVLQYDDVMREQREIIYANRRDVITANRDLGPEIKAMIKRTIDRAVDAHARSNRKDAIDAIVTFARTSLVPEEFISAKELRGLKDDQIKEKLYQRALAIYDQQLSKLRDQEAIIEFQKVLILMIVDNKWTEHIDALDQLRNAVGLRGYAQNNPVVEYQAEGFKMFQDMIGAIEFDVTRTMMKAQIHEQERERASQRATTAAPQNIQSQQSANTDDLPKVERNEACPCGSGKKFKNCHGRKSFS", "type": "cell-based", "conditions": "read-out: IC50, Ion Channel activity, SpSecA"}, "BaSecA1": {"biological_target": "BaSecA1 (Bacillus anthracis, UniProt Q81X26)", "sequence (Q81X26 whole entry, looked up)": "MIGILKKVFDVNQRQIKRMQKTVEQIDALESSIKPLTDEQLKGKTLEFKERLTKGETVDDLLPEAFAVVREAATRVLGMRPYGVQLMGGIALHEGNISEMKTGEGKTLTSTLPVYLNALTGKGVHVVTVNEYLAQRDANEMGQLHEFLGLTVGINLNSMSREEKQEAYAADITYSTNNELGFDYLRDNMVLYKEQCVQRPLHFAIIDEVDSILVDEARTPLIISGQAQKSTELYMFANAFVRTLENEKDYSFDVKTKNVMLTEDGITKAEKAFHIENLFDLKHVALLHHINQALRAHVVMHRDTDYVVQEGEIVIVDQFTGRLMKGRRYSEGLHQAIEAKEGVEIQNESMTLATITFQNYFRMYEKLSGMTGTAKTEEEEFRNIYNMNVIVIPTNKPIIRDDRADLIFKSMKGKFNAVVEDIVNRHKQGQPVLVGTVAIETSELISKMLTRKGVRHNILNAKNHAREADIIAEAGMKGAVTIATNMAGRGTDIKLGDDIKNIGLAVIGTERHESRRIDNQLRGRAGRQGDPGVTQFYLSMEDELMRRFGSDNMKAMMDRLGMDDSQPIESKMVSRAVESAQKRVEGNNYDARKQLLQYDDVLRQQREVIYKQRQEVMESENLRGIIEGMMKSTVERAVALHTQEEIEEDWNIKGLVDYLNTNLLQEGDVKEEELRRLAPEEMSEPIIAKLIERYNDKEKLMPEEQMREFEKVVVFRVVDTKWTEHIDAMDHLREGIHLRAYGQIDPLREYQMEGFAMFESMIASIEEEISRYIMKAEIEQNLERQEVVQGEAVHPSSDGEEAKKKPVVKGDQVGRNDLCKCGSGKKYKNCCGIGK", "assay": "cell-based", "conditions": "IC50, Ion Channel activity, BGaSecA 1"}, "PaSecA": {"biological_target": "PaSecA (Pseudomonas aeruginosa, UniProt Q9LCT3)", "sequence (Q9LCT3 whole entry)": "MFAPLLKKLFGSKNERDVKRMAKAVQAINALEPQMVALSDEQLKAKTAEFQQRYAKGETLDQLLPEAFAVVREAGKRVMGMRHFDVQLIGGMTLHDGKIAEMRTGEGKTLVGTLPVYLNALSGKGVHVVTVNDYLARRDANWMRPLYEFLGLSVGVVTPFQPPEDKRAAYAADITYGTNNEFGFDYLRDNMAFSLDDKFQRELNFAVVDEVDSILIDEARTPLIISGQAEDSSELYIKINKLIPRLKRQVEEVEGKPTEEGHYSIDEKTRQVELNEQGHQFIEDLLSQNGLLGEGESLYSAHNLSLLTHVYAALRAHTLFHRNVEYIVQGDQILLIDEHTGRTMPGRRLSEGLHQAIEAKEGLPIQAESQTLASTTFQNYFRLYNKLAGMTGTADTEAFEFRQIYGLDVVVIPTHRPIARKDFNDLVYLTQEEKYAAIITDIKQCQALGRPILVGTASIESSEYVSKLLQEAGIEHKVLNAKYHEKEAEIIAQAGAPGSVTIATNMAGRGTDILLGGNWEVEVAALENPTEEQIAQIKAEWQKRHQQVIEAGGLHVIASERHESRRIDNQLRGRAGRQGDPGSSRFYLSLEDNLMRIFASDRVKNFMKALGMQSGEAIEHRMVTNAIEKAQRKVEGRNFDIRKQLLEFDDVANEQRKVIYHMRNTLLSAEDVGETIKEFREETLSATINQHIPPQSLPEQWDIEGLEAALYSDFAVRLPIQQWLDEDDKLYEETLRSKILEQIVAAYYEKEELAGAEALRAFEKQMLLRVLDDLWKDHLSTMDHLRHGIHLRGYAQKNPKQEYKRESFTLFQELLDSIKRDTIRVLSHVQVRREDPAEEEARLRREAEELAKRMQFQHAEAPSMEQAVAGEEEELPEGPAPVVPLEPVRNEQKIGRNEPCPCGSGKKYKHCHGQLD", "assay": "cell-based", "type": "cell-based", "conditions": "IC50, Ion Channel activity, PASecA, Table 1"}, "EcSecA [10]": {"biological_target": "T2, EcSecA", "assay": "biochemical", "conditions": "IC50, Translocation ATPase, Table 1"}},
  "note": "Where two headings read alike, the source gives them in different places.",
  "data": [
    {"smiles": "CCCCCCC1c2ccc(O)cc2Oc2cc(O)ccc21", "note": "[SCA-50]", "values": [
      {"measurement": "Bactericidal activity, log numbers killed, S. aureus Mu50", "setting": "S. aureus Mu50 [1]", "value": "more than 3 log numbers"},
      {"measurement": "IC50", "setting": "BsSecA [2]", "value": 33, "unit": "µM"},
      {"measurement": "IC50", "setting": "MtbSecA", "value": 3, "unit": "µM"},
      {"measurement": "IC50", "setting": "EcSecA [3]", "value": 2.3, "unit": "µM"},
      {"measurement": "IC50", "setting": "BsSecA [4]", "value": 2.5, "unit": "µM"},
      {"measurement": "Change of MIC on overexpression or deletion of NorA or MepA", "setting": "[5]", "value": "did not significantly change"},
      {"measurement": "IC50", "setting": "SaSecA1", "value": 20, "unit": "µM"},
      {"measurement": "Bactericidal activity, log numbers killed, S. aureus 6538", "setting": "S. aureus 6538", "value": 2, "unit": "log numbers"},
      {"measurement": "IC50", "setting": "EcSecA N68", "value": 4, "unit": "µM"},
      {"measurement": "Amount of α-hemolysin, enterotoxin B, and TSST-1 in the supernatant", "setting": "[6]", "value": "significantly decreased"},
      {"measurement": "MIC", "setting": "S. aureus Mu3", "value": 3.7, "unit": "mg/L"},
      {"measurement": "IC50", "setting": "EcSecA [7]", "value": 60, "unit": "µM"},
      {"measurement": "MIC fold less than the MIC of ampicillin, kanamyin, erythromycin, and rifampicin", "setting": "S. aureus Mu50 [8]; S. aureus Mu50", "value": 250, "unit": "fold"},
      {"measurement": "MIC", "setting": "S. aureus Mu50 [8]; MU50, read-out: Bacteriostatic MIC95, S. aureus Mu50, Table 2", "value": 2.4, "unit": "mg/L"},
      {"measurement": "MIC", "setting": "S. aureus Mu50 [8]; MU50, read-out: Bacteriostatic effect MIC, S. aureus Mu50, Table 10 and Example 4", "value": 4, "unit": "mg/L"},
      {"measurement": "MIC", "setting": "S. aureus Mu50 [8]; MU50, read-out: Bacteriostatic effect, MIC, S. aureus Mu50, Table 8", "value": 3.7, "unit": "mg/L"},
      {"measurement": "MIC", "setting": "S. aureus Mu50 [8]; MU50, read-out: MIC95 against drug resistant S. aureus Mu50", "value": 2.4, "unit": "µM"},
      {"measurement": "Bacteriostatic effect MIC, S. aureus Mu50", "setting": "S. aureus Mu50 [8]; Table 10 and text of Example 4", "value": 3.7, "unit": "mg/L"},
      {"measurement": "IC50", "setting": "MsSecA", "value": 2.5, "unit": "µM"},
      {"measurement": "IC50", "setting": "EcSecA [9]", "value": 38, "unit": "µM"},
      {"measurement": "MIC", "setting": "S. pyogenes, MGAS5005", "value": 6.25, "unit": "µM"},
      {"measurement": "MIC", "setting": "S. aureus N315", "value": 3.7, "unit": "mg/L"},
      {"measurement": "IC50", "setting": "SpSecA", "value": 1.9, "unit": "µM"},
      {"measurement": "IC50", "setting": "BaSecA1", "value": 1, "unit": "µM"},
      {"measurement": "IC50", "setting": "PaSecA", "value": 3, "unit": "µM"},
      {"measurement": "IC50", "setting": "EcSecA [10]", "value": 60, "unit": "µM"}
    ]}
  ]
}
